As usually defined, the Kd is the free concentration of one partner at which half of the binding sites on the other are occupied at equilibrium, for simple one-to-one binding. By IC50 is commonly meant the concentration that gives 50% inhibition. A lower IC50 goes with greater potency.

Assay [1] deals with GDP-bound HRAS wild-type protein (Homo sapiens, UniProt P01112). Put plainly: Binding to HRAS by surface plasmon resonance (SPR), Single Cycle Kinetics. The note with it: SPR; GDP-bound HRAS wild-type protein vs GDP-bound KRAS wild-type protein; KD ratio class. (In general: In SPR one partner is held on a chip, and binding of the other changes the refractive index at the surface.)

The target of assay [2] is GDP-bound KRAS wild-type protein (Homo sapiens, UniProt P01116). Put plainly: Binding to KRAS by surface plasmon resonance (SPR), Single Cycle Kinetics. Particulars: SPR, Single Cycle Kinetics, 1:1 binding model; GDP-bound KRAS wild-type protein; read-out: KRAS KD.
Assay [3] has as its system human lung cancer strain NCI-H441.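 Also: cell proliferation inhibition after four days measured by CellTiter-Glo.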
Assay [4] concerns the target GDP-bound NRAS wild-type protein (Homo sapiens, UniProt P01111). The assay is described as follows: Binding to NRAS by surface plasmon resonance (SPR), Single Cycle Kinetics. The note with it: SPR; GDP-bound NRAS wild-type protein vs GDP-bound KRAS wild-type protein; KD ratio class.

Chain of GDP-bound KRAS wild-type protein (P01116 whole entry): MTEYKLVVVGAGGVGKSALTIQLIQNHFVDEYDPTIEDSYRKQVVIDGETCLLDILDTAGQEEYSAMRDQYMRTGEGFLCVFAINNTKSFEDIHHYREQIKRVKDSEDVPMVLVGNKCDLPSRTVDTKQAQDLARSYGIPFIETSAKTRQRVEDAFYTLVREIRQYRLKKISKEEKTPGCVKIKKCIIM
Chain of GDP-bound NRAS wild-type protein (P01111 whole entry): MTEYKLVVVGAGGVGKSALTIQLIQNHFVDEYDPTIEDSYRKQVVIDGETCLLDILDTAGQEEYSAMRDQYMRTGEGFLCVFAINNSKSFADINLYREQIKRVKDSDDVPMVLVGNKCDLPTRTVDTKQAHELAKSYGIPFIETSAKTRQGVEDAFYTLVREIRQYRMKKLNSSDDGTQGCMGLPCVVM
Chain of GDP-bound HRAS wild-type protein (P01112 whole entry): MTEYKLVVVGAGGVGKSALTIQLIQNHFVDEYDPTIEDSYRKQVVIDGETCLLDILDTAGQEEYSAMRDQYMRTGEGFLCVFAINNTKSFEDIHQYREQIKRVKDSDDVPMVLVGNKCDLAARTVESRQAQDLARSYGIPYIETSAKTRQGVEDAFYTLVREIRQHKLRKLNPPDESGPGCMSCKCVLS

In the case of `CCO[C@@H]1C[C@H]2C(=O)NC3(CCCC3)C(=O)N(C)[C@@H](C(CC)CC)C(=O)N(C)[C@H](C(=O)N3CCCC3)CC(=O)N(C)[C@@H](COC)C(=O)N[C@@H]([C@@H](C)CC)C(=O)N(C)CC(=O)N(C)[C@H]3C/C=C\CCN(C3=O)[C@@H](CC3CCCCC3)C(=O)N(C)CC(=O)N[C@@H](CCc3cc(F)c(C(F)(F)F)c(F)c3)C(=O)N2C1` [PP1439], the “HRAS/KRAS (ratio of KD value for HRAS to KD value for KRAS)” value in assay [1] is “A (a compound having 10 or more and less than 20 is denoted as A)”. In addition, the Kd in assay [2] was determined as 1.2 nM. In assay [3], the IC50 was determined as 87.3 nM. The “NRAS/KRAS (ratio of KD value for NRAS to KD value for KRAS)” value in assay [4] is given as “AA (a compound having 20 or more is denoted as AA)”.

As for `CCO[C@@H]1C[C@H]2C(=O)NC3(CCC3)C(=O)N(C)[C@@H](C(CC)CC)C(=O)N(C)[C@H](C(=O)N3CCCC3)CC(=O)N(C)[C@@H](COC)C(=O)N[C@@H]([C@@H](C)CC)C(=O)N(C)CC(=O)N(C)[C@H]3C/C=C\CCN(C3=O)[C@@H](CC3CCC(F)(F)CC3)C(=O)N(C)CC(=O)N[C@@H](CCc3cc(F)c(C(F)(F)F)c(F)c3)C(=O)N2C1` [PP1440], in assay [1], the “HRAS/KRAS (ratio of KD value for HRAS to KD value for KRAS)” value was “A (a compound having 10 or more and less than 20 is denoted as A)”. Also, the Kd in assay [2] is 0.35 nM. In assay [3], this compound had an IC50 of 69.7 nM. Also, the “NRAS/KRAS (ratio of KD value for NRAS to KD value for KRAS)” value in assay [4] is “AA (a compound having 20 or more is denoted as AA)”.

As to `CCO[C@@H]1C[C@H]2C(=O)NC3(CCCC3)C(=O)N(C)[C@@H](C(CC)CC)C(=O)N(C)[C@H](C(=O)N3CCCC3)CC(=O)N(C)[C@@H](COC)C(=O)N[C@@H]([C@@H](C)CC)C(=O)N(C)CC(=O)N(C)[C@H]3C/C=C\CCN(C3=O)[C@@H](CC3CCC(F)(F)CC3)C(=O)N(C)CC(=O)N[C@@H](CCc3cc(F)c(C(F)(F)F)c(F)c3)C(=O)N2C1` [PP1441], the “HRAS/KRAS (ratio of KD value for HRAS to KD value for KRAS)” value in assay [1] is “A (a compound having 10 or more and less than 20 is denoted as A)”. The Kd in assay [2] stood at 0.7 nM. In addition, the IC50 in assay [3] came out at 87.6 nM. The “NRAS/KRAS (ratio of KD value for NRAS to KD value for KRAS)” value in assay [4] was “A (a compound having 10 or more and less than 20 is denoted as A)”.

As for `CCO[C@@H]1C[C@H]2C(=O)NC3(CCC3)C(=O)N(C)[C@@H](C3CCCC3)C(=O)N(C)[C@H](C(=O)N3CCCC3)CC(=O)N(C)[C@@H](CC)C(=O)N[C@@H]([C@@H](C)CC)C(=O)N(C)CC(=O)N(C)[C@H]3C/C=C\CCN(C3=O)[C@@H](CC3CCCCC3)C(=O)N(C)CC(=O)N[C@@H](CCc3cc(F)c(C(F)(F)F)c(F)c3)C(=O)N2C1` [PP1443, (2S,8S,12R,14S,20S,23S,27S,30S,36S,38Z)-2-(cyclohexylmethyl)-20-cyclopentyl-8-[2-[3,5-difluoro-4-(trifluoromethyl)phenyl]ethyl]-12-ethoxy-27-ethyl-4,19,22,26,32,35-hexamethyl-30-[(1S)-1-methylpropyl]-23-(pyrrolidine-1-carbonyl)spiro[1,4,7,10,16,19,22,26,29,32,35-undecazatricyclo[34.5.1.0^10,14]dotetracont-38-ene-17,1′-cyclobutane]-3,6,9,15,18,21,25,28,31,34,42-undecone], the “HRAS/KRAS (ratio of KD value for HRAS to KD value for KRAS)” value in assay [1] was “A (a compound having 10 or more and less than 20 is denoted as A)”. The Kd in assay [2] is 0.15 nM. For the same compound, the IC50 in assay [3] stood at 34.8 nM. The “NRAS/KRAS (ratio of KD value for NRAS to KD value for KRAS)” value in assay [4] was “AA (a compound having 20 or more is denoted as AA)”.

For the compound `CCO[C@@H]1C[C@H]2C(=O)NC3(CCC3)C(=O)N(C)[C@@H](C3CCCC3)C(=O)N(C)[C@H](C(=O)N3CCC3)CC(=O)N(C)[C@@H](CC)C(=O)N[C@@H]([C@@H](C)CC)C(=O)N(C)CC(=O)N(C)[C@H]3C/C=C\CCN(C3=O)[C@@H](CC3CCC(F)(F)CC3)C(=O)N(C)CC(=O)N[C@@H](CCc3cc(F)c(C(F)(F)F)c(F)c3)C(=O)N2C1` [PP1444], the “HRAS/KRAS (ratio of KD value for HRAS to KD value for KRAS)” value in assay [1] was “A (a compound having 10 or more and less than 20 is denoted as A)”. Besides, in assay [2], the Kd is 0.19 nM. In addition, half-maximal inhibition in assay [3] (IC50) was put at 103 nM. Also, in assay [4], the “NRAS/KRAS (ratio of KD value for NRAS to KD value for KRAS)” value was “A (a compound having 10 or more and less than 20 is denoted as A)”.

Turning to `CCO[C@@H]1C[C@H]2C(=O)NC3(CCC3)C(=O)N(C)[C@@H](C3CCCC3)C(=O)N(C)[C@H](C(=O)N3CCC3)CC(=O)N(C)[C@@H](CC)C(=O)N[C@@H]([C@@H](C)CC)C(=O)N(C)CC(=O)N(C)[C@H]3C/C=C\CCN(C3=O)[C@@H](CC3CCCCC3)C(=O)N(C)CC(=O)N[C@@H](CCc3cc(F)c(C(F)(F)F)c(F)c3)C(=O)N2C1` [PP1445], in assay [1], the “HRAS/KRAS (ratio of KD value for HRAS to KD value for KRAS)” value was “A (a compound having 10 or more and less than 20 is denoted as A)”. Besides, the Kd in assay [2] came out at 0.27 nM. The IC50 in assay [3] is 92.8 nM. In assay [4], the “NRAS/KRAS (ratio of KD value for NRAS to KD value for KRAS)” value is “A (a compound having 10 or more and less than 20 is denoted as A)”.

For the compound `CCO[C@@H]1C[C@H]2C(=O)NC3(CCC3)C(=O)N(C)[C@@H](C3CCCC3)C(=O)N(C)[C@H](C(=O)N(C)C)CC(=O)N(C)[C@@H](CC3CC3)C(=O)N[C@@H]([C@@H](C)CC)C(=O)N(C)CC(=O)N(C)[C@H]3C/C=C\CCN(C3=O)[C@@H](CC3CCCCC3)C(=O)N(C)CC(=O)N[C@@H](CCc3cc(F)c(C(F)(F)F)c(F)c3)C(=O)N2C1` [PP1446], the “HRAS/KRAS (ratio of KD value for HRAS to KD value for KRAS)” value in assay [1] was “A (a compound having 10 or more and less than 20 is denoted as A)”. For the same compound, the Kd in assay [2] was 0.2 nM. Also, the IC50 in assay [3] was determined as 32 nM. Besides, in assay [4], the “NRAS/KRAS (ratio of KD value for NRAS to KD value for KRAS)” value was “A (a compound having 10 or more and less than 20 is denoted as A)”.

For the compound `CCO[C@@H]1C[C@H]2C(=O)NC3(CCC3)C(=O)N(C)[C@@H](C3CCCC3)C(=O)N(C)[C@H](C(=O)N(C)C)CC(=O)N(C)[C@@H](CC3CC3)C(=O)N[C@@H]([C@@H](C)CC)C(=O)N(C)CC(=O)N(C)[C@H]3C/C=C\CCN(C3=O)[C@@H](CC3CCC(F)(F)CC3)C(=O)N(C)CC(=O)N[C@@H](CCc3cc(F)c(C(F)(F)F)c(F)c3)C(=O)N2C1` [PP1447, (2S,8S,12R,14S,20S,23S,27S,30S,36S,38Z)-20-cyclopentyl-27-(cyclopropylmethyl)-2-[(4,4-difluorocyclohexyl)methyl]-8-[2-[3,5-difluoro-4-(trifluoromethyl)phenyl]ethyl]-12-ethoxy-N,N,4,19,22,26,32,35-octamethyl-30-[(1S)-1-methylpropyl]-3,6,9,15,18,21,25,28,31,34,42-undecaoxo-spiro[1,4,7,10,16,19,22,26,29,32,35-undecazatricyclo[34.5.1.0^10,14]dotetracont-38-ene-17,1′-cyclobutane]-23-carboxamide], the “HRAS/KRAS (ratio of KD value for HRAS to KD value for KRAS)” value in assay [1] was “A (a compound having 10 or more and less than 20 is denoted as A)”. Besides, the Kd in assay [2] was found to be 0.12 nM. Moreover, in assay [3], the IC50 is 28.9 nM. Further, the “NRAS/KRAS (ratio of KD value for NRAS to KD value for KRAS)” value in assay [4] is “A (a compound having 10 or more and less than 20 is denoted as A)”.

For the compound `CC[C@H](C)[C@@H]1NC(=O)[C@H](CC)N(C)C(=O)C[C@@H](C(=O)N(C)C)N(C)C(=O)[C@H](C2CCCC2)N(C)C(=O)C2(CCC2)NC(=O)[C@@H]2CC(F)(F)CN2C(=O)[C@H](CCc2cc(F)c(C(F)(F)F)c(F)c2)NC(=O)CN(C)C(=O)[C@H](CC2CCC(F)(F)CC2)N2CC/C=C\C[C@@H](C2=O)N(C)C(=O)CN(C)C1=O` [PP1448, (2S,8S,14S,20S,23S,27S,30S,36S,38Z)-20-cyclopentyl-2-[(4,4-difluorocyclohexyl)methyl]-8-[2-[3,5-difluoro-4-(trifluoromethyl)phenyl]ethyl]-27-ethyl-12,12-difluoro-N,N,4,19,22,26,32,35-octamethyl-30-[(1S)-1-methylpropyl]-3,6,9,15,18,21,25,28,31,34,42-undecaoxo-spiro[1,4,7,10,16,19,22,26,29,32,35-undecazatricyclo[34.5.1.0^10,14]dotetracont-38-ene-17,1′-cyclobutane]-23-carboxamide], the “HRAS/KRAS (ratio of KD value for HRAS to KD value for KRAS)” value in assay [1] is “A (a compound having 10 or more and less than 20 is denoted as A)”. Also, the Kd in assay [2] is 0.059 nM. This compound also gave an IC50 in assay [3] of 8.3 nM. Also, the “NRAS/KRAS (ratio of KD value for NRAS to KD value for KRAS)” value in assay [4] is “A (a compound having 10 or more and less than 20 is denoted as A)”.

`CCO[C@@H]1C[C@H]2C(=O)NC3(CCC3)C(=O)N(C)[C@@H](C3CCCC3)C(=O)N(C)[C@H](C(=O)N(C)C)CC(=O)N(C)[C@@H](CSC)C(=O)N[C@@H]([C@@H](C)CC)C(=O)N(C)CC(=O)N(C)[C@H]3C/C=C\CCN(C3=O)[C@@H](CC3CCC(F)(F)CC3)C(=O)N(C)CC(=O)N[C@@H](CCc3cc(F)c(C(F)(F)F)c(F)c3)C(=O)N2C1` [PP1449, (2S,8S,12R,14S,20S,23S,27R,30S,36S,38Z)-20-cyclopentyl-2-[(4,4-difluorocyclohexyl)methyl]-8-[2-[3,5-difluoro-4-(trifluoromethyl)phenyl]ethyl]-12-ethoxy-N,N,4,19,22,26,32,35-octamethyl-30-[(1 S)-1-methylpropyl]-27-(methylsulfanylmethyl)-3,6,9,15,18,21,25,28,31,34,42-undecaoxo-spiro[1,4,7,10,16,19,22,26,29,32,35-undecazatricyclo[34.5.1.0^10,14]dotetracont-38-ene-17,1′-cyclobutane]-23-carboxamide]: the “HRAS/KRAS (ratio of KD value for HRAS to KD value for KRAS)” value in assay [1] is “A (a compound having 10 or more and less than 20 is denoted as A)”. The Kd in assay [2] was determined as 0.098 nM. For the same compound, in assay [3], it took 30.6 nM to reach half-maximal inhibition (IC50). The “NRAS/KRAS (ratio of KD value for NRAS to KD value for KRAS)” value in assay [4] is “A (a compound having 10 or more and less than 20 is denoted as A)”.

The record behind these values is patent US20240158446A1, “CYCLIC COMPOUND HAVING SELECTIVE INHIBITORY ACTION ON KRAS OVER HRAS AND NRAS” (CHUGAI SEIYAKU KABUSHIKI KAISHA, priority 2021, published 2024).
